Experimental data: ChEMBL document CHEMBL1126473, “Benzolactams as non-peptide cholecystokinin receptor ligands” (Bioorg Med Chem Lett, 1993)

How the values were obtained:
[1] = target: T1, Cholecystokinin receptor type A (Rattus norvegicus, UniProt P30551); test: Ability to inhibit the binding of [125I]CCK-8 to Cholecystokinin type A receptor in rat pancreas.
T1 sequence (P30551 whole entry): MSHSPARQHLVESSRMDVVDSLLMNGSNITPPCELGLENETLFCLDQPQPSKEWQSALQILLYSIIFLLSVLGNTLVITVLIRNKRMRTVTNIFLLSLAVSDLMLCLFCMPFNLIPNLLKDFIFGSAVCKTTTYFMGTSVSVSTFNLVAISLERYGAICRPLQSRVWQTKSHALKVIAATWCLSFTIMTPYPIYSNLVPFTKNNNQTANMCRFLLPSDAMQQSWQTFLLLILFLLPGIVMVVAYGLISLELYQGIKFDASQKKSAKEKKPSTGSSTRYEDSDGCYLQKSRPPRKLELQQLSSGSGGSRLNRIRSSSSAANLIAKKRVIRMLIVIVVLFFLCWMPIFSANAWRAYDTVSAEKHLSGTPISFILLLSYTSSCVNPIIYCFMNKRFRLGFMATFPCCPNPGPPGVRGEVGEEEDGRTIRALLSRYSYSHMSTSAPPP

[2] = Ability to inhibit the binding of [125I]-gastrin to gastric glands in guinea pig.
[3] = Ability to inhibit the binding of [125I]CCK-8 to Cholecystokinin type B receptor in guinea pig cortex.

Row | SMILES | IC50 [1] [nM] | IC50 [2] [nM] | IC50 [3] [nM]
1 | Cc1cccc(NC(=O)NC2CCc3ccccc3N(CC(=O)N3CCCC3)C2=O)c1 (configuration not stated) | 130 |  | 
2 | COc1cccc(NC(=O)N[C@H]2CCc3ccccc3N(CC(=O)N3CCCC3)C2=O)c1 | 335 |  | 
3 | CC(C)(C)OC(=O)CN1C(=O)C(NC(=O)c2ccc3ccccc3c2)CCc2ccccc21 (configuration not stated) | 7.5 |  | 
4 | Cc1cccc(NC(=O)NC2CCc3ccccc3N(CC(=O)OC(C)(C)C)C2=O)c1 (configuration not stated) | 140 |  | 
5 | Cc1cccc(NC(=O)N[C@H]2CCc3ccccc3N(CC(=O)N3CCCC3)C2=O)c1 | 1000 |  | 
6 | Cc1cccc(NC(=O)N[C@@H]2CCc3ccccc3N(CC(=O)N3CCCC3)C2=O)c1 | 30 |  | 
7 | COc1cccc(NC(=O)N[C@@H]2CCc3ccccc3N(CC(=O)N3CCCC3)C2=O)c1 | 28 |  | 
8 | CCOC(=O)CN1C(=O)C(NC(=O)Nc2ccc(Cl)cc2)N=C(c2ccccc2)c2ccccc21 (configuration not stated) |  | 3.3 | 1
9 | COc1cccc(NC(=O)NC2CCc3ccccc3N(CC(=O)OC(C)(C)C)C2=O)c1 (configuration not stated) | 62 |  | 
10 | O=C(Nc1ccc(Cl)cc1)NC1N=C(c2ccccc2)c2ccccc2N(CC(=O)N2CCCC2)C1=O (configuration not stated) |  | 0.5 | 0.28
